What was measured:
[1] = system: PDH; experiment: PDH activity by 13C-MR detection (13C-bicarbonate to 13C-pyruvate ratio) in STZ Type 1 diabetes model; assay type: in vivo, male Wistar rats; conditions: single i.p. injection 50 mg/kg, five days after induction, rat heart, each rat its own control
Protocol: Initial PDH activity (baseline) was determined in a first group of 6 rats according to Example 3. […] Five days after STZ-diabetes induction, PDH activity was determined again, each rat served as its own experimental control.
(§1) All rats were anaesthetised using isofluorane (2% in oxygen) and kept on a heated mat. Care was taken to maintain body temperature at 37° C. A catheter was introduced into the tail vein, and rats were then placed in a home-built animal handling system. ECG, respiration rate, and body temperature were monitored, and air heating was provided. Anaesthesia was continued by means of isofluorane (1.7%) delivered to a nose cone.
1 cm^3 of the imaging medium as prepared in Example 1 was injected over 10 s via the tail vein catheter in the anaesthetised rat. […]
(§2) The series of cardiac ^13C MR spectra were analysed using the AMARES algorithm as implemented in the jMRUI software package (Naressi et al., Computers in Biology and Medicine, 31(4), 2001, 269-286 and Naressi et al., Magnetic Resonance Materials in Physics, Biology and Medicine, 12(2-3), 2001, 141-152). […]
Maximum pyruvate peak area was calculated for each series of spectra, and was used to calculate maximum bicarbonate/pyruvate ratio. […] Parameters describing the kinetic progression of bicarbonate, namely time to appearance, time to maximum, and decay time to half maximum were also calculated.

[2] = T1 relaxation of 13C1-pyruvate in human full blood; assay type: physicochemical; conditions: human full blood at 37° C.
[3] = system: PDH; experiment: PDH flux by cardiac 13C-MR with imaging medium with or without malate, fed and fasted rats; assay type: in vivo, male Wistar rats; conditions: 40 μmol hyperpolarised 13C-pyruvate alone, fasted vs fed rats
Protocol: as §1
A home-built ^1H/^13C butterfly coil was fit over the rat chest, localising signal from the heart. Rats were positioned in a 7 T horizontal bore MR scanner interfaced to a Varian Inova console. Correct positioning was confirmed by the acquisition of an axial proton FLASH image (TE/TR=1.17/2.33 ms, Matrix size=64×64, FOV=60×60 mm, Slice thickness=2.5 mm, Excitation flip angle=15°). […]
as §2
Maximum pyruvate peak area was calculated for each series of spectra, and was used to calculate maximum bicarbonate/pyruvate ratio. […] Parameters describing the kinetic progression of bicarbonate, namely time to appearance, time to maximum, and decay time to half maximum were also calculated. […]

T1 relaxation [2]	SMILES	ratio of the 13C-bicarbonate to 13C-pyruvate peak amplitude / PDH activity, before vs after STZ injection [1]	PDH flux lower in fasted rats compared with fed rats [3] [%]
–	CN(N=O)C(=O)N[C@H]1C(O)O[C@H](CO)[C@@H](O)[C@@H]1O (mixture of isomers) [STZ, Streptozotocin]	decrease in PDH activity	–
about 42 s	CC(=O)C(=O)O [^13C1-pyruvate, sodium ^13C1-pyruvate]	–	55
